From PMC11206519, “Multi-Endpoint Toxicological Assessment of Chrysin Loaded Oil-in-Water Emulsion System in Different Biological Models” (Nanomaterials, 2024)
Like-named read-outs stand apart in the source and are kept apart here.

What was measured:
S. typhimurium TA100 = assay: Ames test, anti-mutagenicity
Method: (§1) Furthermore, the anti-mutagenicity of the samples was performed by a similar procedure, as mentioned above. […] The percentage inhibition (decrease revertant colony number) was calculated as in the following equation:Anti-mutagenicity (%) = [1 − (b/a)] × 100 • a = revertant colony number induced via standard mutagen (positive control). • b = revertant colony number induced by standard mutagen in the presence of each sample treatment.
(§2) The percent of inhibition between 0–20%, 21–40%, 41–60%, and higher than 60% indicate negligible, weak, moderate, and strong anti-mutagenicity, respectively.

S. typhimurium TA98 = assay: Ames test, anti-mutagenicity
Method: as §1, §2

[1] = tested on: D. melanogaster trans-heterozygous mwh+/+flr3 larvae of the ST cross; assay: SMART wing spot test, mutagenicity, ST cross; format: in vivo, Drosophila melanogaster; details: for Statistical diagnosis, Small Single / Statistical diagnosis, Total Spots: vs DI
Method: The somatic mutation and recombination test, or the wing spot test, using D. melanogaster was employed as an in vivo system to assess the mutagenicity and anti-mutagenicity of chrysin-ES. Two different crosses were conducted: (i) a standard cross (ST) and (ii) a high bioactivation cross (HB) [18]. The standard cross larvae were obtained from virgin female of flr3/TM3, Ser crossed with males of mwh/mwh, while the HB cross larvae expressing cytochrome P450 enzymes involved in xenobiotic biotransformation were obtained from virgin females of ORR/ORR; flr^3/In (3LR) TM3, ri p^psep l (3)89Aa bx^34e e Bd^s crossed with males of mwh/mwh. The flies were cultured at a constant temperature of 25 ± 1 °C and 60–70% RH at photoperiod 12:12 (light/dark). To evaluate the mutagenicity of chrysin and chrysin-ES, a hundred larva F1 progenies derived from the above crossing were fed with instant Drosophila medium (Formula 4-24®), Carolina, Burlington, NC, USA) containing chrysin or chrysin-ES (20–120 µg/mL). DI was used as a negative control, while 20 mM urethane (URE) was used as a positive control. The larvae were reared on each medium until pupation at 25 °C. After that, forty wings of surviving flies in each group were collected for mutant analysis. The mutant spots on the wings, including small single spots, large single spots, and twin spots, were counted.

[2] = AF-2 0.1 µg/plate, −S9, 5.7 µM/plate
[3] = AF-2 0.1 µg/plate, −S9, 11.4 µM/plate
[4] = AF-2 0.1 µg/plate, −S9, 22.8 µM/plate
[5] = IQ 0.05 µg/plate, +S9, 0.35 µM/plate
[6] = IQ 0.05 µg/plate, +S9, 0.70 µM/plate
[7] = IQ 0.05 µg/plate, +S9, 1.40 µM/plate
[8] = IQ 0.05 µg/plate, +S9, 2.85 µM/plate
[9] = IQ 0.05 µg/plate, +S9, 5.70 µM/plate
[10] = Salmonella enterica, TYPHIMURIUM, read-out: % mutagenic inhibition, AF-2 0.1 µg/plate, −S9, 5.7 µM/plate
[11] = Salmonella enterica, TYPHIMURIUM, read-out: % mutagenic inhibition, AF-2 0.1 µg/plate, −S9, 11.4 µM/plate
[12] = Salmonella enterica, TYPHIMURIUM, read-out: % mutagenic inhibition, AF-2 0.1 µg/plate, −S9, 22.8 µM/plate
[13] = PhIP 0.1 µg/plate, +S9, 0.35 µM/plate
[14] = PhIP 0.1 µg/plate, +S9, 0.70 µM/plate
[15] = PhIP 0.1 µg/plate, +S9, 1.40 µM/plate
[16] = PhIP 0.1 µg/plate, +S9, 2.85 µM/plate
[17] = PhIP 0.1 µg/plate, +S9, 5.70 µM/plate

With `O=c1cc(-c2ccccc2)oc2cc(O)cc(O)c12` [Chrysin, 5,7-dihydroxyflavone] the “Inhibitory Classification” value (S. typhimurium TA100; [2]) was “Mild”, the “Number of Revertant Colonies” value (S. typhimurium TA100; [2]) was 252 ± 14 and the “Inhibitory Classification” value (S. typhimurium TA100; [3]) was “Mild”. For the same compound, the “Number of Revertant Colonies” value (S. typhimurium TA100; [3]) was 250 ± 6, the “Inhibitory Classification” value (S. typhimurium TA100; [4]) was “Mild” and the “Number of Revertant Colonies” value (S. typhimurium TA100; [4]) was 235 ± 20. For the same compound, the “Inhibitory Classification” value (S. typhimurium TA100; [5]) was “Moderate”, the “Number of Revertant Colonies” value (S. typhimurium TA100; [5]) was 328 ± 32 and the “Inhibitory Classification” value (S. typhimurium TA100; [6]) was “Strong”. For the same compound, the “Number of Revertant Colonies” value (S. typhimurium TA100; [6]) was 243 ± 16, the “Inhibitory Classification” value (S. typhimurium TA100; [7]) was “Strong” and the “Number of Revertant Colonies” value (S. typhimurium TA100; [7]) was 161 ± 10. For the same compound, the “Inhibitory Classification” value (S. typhimurium TA100; [8]) was “Strong”, the “Number of Revertant Colonies” value (S. typhimurium TA100; [8]) was 106 ± 15 and the “Inhibitory Classification” value (S. typhimurium TA100; [9]) was “Strong”. The “Number of Revertant Colonies” value (S. typhimurium TA100; [9]) was 47 ± 10, the inhibition at […] (S. typhimurium TA100; [10]) was 32% and the inhibition at 11.4 µM (S. typhimurium TA100; [11]) was 32%. For the same compound, the inhibition at 22.8 µM (S. typhimurium TA100; [12]) was 37%, the inhibition at 0.35 µM (S. typhimurium TA100; Salmonella enterica, TYPHIMURIUM, read-out: % mutagenic inhibition, IQ 0.05 µg/plate, +S9, 0.35 µM/plate) was 56% and the inhibition at 0.7 µM (S. typhimurium TA100; Salmonella enterica, TYPHIMURIUM, read-out: % mutagenic inhibition, IQ 0.05 µg/plate, +S9, 0.70 µM/plate) was 67%. For the same compound, the inhibition at 1.4 µM (S. typhimurium TA100; Salmonella enterica, TYPHIMURIUM, read-out: % mutagenic inhibition, IQ 0.05 µg/plate, +S9, 1.40 µM/plate) was 78%, the inhibition at 2.85 µM (S. typhimurium TA100; Salmonella enterica, TYPHIMURIUM, read-out: % mutagenic inhibition, IQ 0.05 µg/plate, +S9, 2.85 µM/plate) was 86% and the inhibition at […] (S. typhimurium TA100; Salmonella enterica, TYPHIMURIUM, read-out: % mutagenic inhibition, IQ 0.05 µg/plate, +S9, 5.70 µM/plate) was 94%. For the same compound, the “Inhibitory Classification” value (S. typhimurium TA98; [2]) was “Mild”, the “Number of Revertant Colonies” value (S. typhimurium TA98; [2]) was 166 ± 23 and the “Inhibitory Classification” value (S. typhimurium TA98; [3]) was “Moderate”. For the same compound, the “Number of Revertant Colonies” value (S. typhimurium TA98; [3]) was 140 ± 39, the “Inhibitory Classification” value (S. typhimurium TA98; [4]) was “Mild” and the “Number of Revertant Colonies” value (S. typhimurium TA98; [4]) was 164 ± 56. The “Inhibitory Classification” value (S. typhimurium TA98; [13]) was “Moderate”, the “Number of Revertant Colonies” value (S. typhimurium TA98; [13]) was 214 ± 9 and the “Inhibitory Classification” value (S. typhimurium TA98; [14]) was “Strong”. The “Number of Revertant Colonies” value (S. typhimurium TA98; [14]) was 153 ± 10, the “Inhibitory Classification” value (S. typhimurium TA98; [15]) was “Strong” and the “Number of Revertant Colonies” value (S. typhimurium TA98; [15]) was 77 ± 12. For the same compound, the “Inhibitory Classification” value (S. typhimurium TA98; [16]) was “Strong”, the “Number of Revertant Colonies” value (S. typhimurium TA98; [16]) was 71 ± 9 and the “Inhibitory Classification” value (S. typhimurium TA98; [17]) was “Strong”. The “Number of Revertant Colonies” value (S. typhimurium TA98; [17]) was 45 ± 18, the inhibition at […] (S. typhimurium TA98; [10]) was 34% and the inhibition at 11.4 µM (S. typhimurium TA98; [11]) was 45%. It also gave an inhibition at 22.8 µM (S. typhimurium TA98; [12]) of 35%, an inhibition at 0.35 µM (S. typhimurium TA98; Salmonella enterica, TYPHIMURIUM, read-out: % mutagenic inhibition, PhIP 0.1 µg/plate, +S9, 0.35 µM/plate) of 46% and an inhibition at 0.7 µM (S. typhimurium TA98; Salmonella enterica, TYPHIMURIUM, read-out: % mutagenic inhibition, PhIP 0.1 µg/plate, +S9, 0.70 µM/plate) of 62%. The inhibition at 1.4 µM (S. typhimurium TA98; Salmonella enterica, TYPHIMURIUM, read-out: % mutagenic inhibition, PhIP 0.1 µg/plate, +S9, 1.40 µM/plate) was 81%, the inhibition at 2.85 µM (S. typhimurium TA98; Salmonella enterica, TYPHIMURIUM, read-out: % mutagenic inhibition, PhIP 0.1 µg/plate, +S9, 2.85 µM/plate) was 82% and the inhibition at […] (S. typhimurium TA98; Salmonella enterica, TYPHIMURIUM, read-out: % mutagenic inhibition, PhIP 0.1 µg/plate, +S9, 5.70 µM/plate) was 89%. For the same compound, the “Mutant spots per individual (number of spots), Large Single” value ([1]; 20 µg/mL) was 0 (0), the “Mutant spots per individual (number of spots), Small Single” value ([1]; 20 µg/mL) was 0.38 (15) and the “Mutant spots per individual (number of spots), Total Spots” value ([1]; 20 µg/mL) was 0.38 (15). For the same compound, the “Mutant spots per individual (number of spots), Twin” value (“Mutant spots per individual … Twin” below) ([1]; 20 µg/mL) was 0 (0), the “Statistical diagnosis, Small Single” value ([1]; 20 µg/mL) was “−” and the “Statistical diagnosis, Total Spots” value ([1]; 20 µg/mL) was “−”. The “Mutant spots per individual (number of spots), Large Single” value ([1]; 40 µg/mL) was 0.03 (1), the “Mutant spots per individual (number of spots), Total Spots” value ([1]; 40 µg/mL) was 0.38 (15) and the “Mutant spots per individual … Twin” value ([1]; 40 µg/mL) was 0 (0). For the same compound, the “Statistical diagnosis, Small Single” value ([1]; 40 µg/mL) was “−”, the “Statistical diagnosis, Total Spots” value ([1]; 40 µg/mL) was “−” and the “Mutant spots per individual (number of spots), Large Single” value ([1]; 80 µg/mL) was 0 (0). The “Mutant spots per individual (number of spots), Small Single” value ([1]; 80 µg/mL) was 0.58 (23), the “Mutant spots per individual (number of spots), Total Spots” value ([1]; 80 µg/mL) was 0.58 (23) and the “Mutant spots per individual … Twin” value ([1]; 80 µg/mL) was 0 (0). For the same compound, the “Statistical diagnosis, Small Single” value ([1]; 80 µg/mL) was “−”, the “Statistical diagnosis, Total Spots” value ([1]; 80 µg/mL) was “−” and the “Mutant spots per individual (number of spots), Large Single” value ([1]; 120 µg/mL) was 0.08 (3). The “Mutant spots per individual (number of spots), Small Single” value ([1]; 120 µg/mL) was 0.83 (33), the “Mutant spots per individual (number of spots), Total Spots” value ([1]; 120 µg/mL) was 0.90 (36) and the “Mutant spots per individual … Twin” value ([1]; 120 µg/mL) was 0 (0). For the same compound, the “Statistical diagnosis, Small Single” value ([1]; 120 µg/mL) was “−”, the “Statistical diagnosis, Total Spots” value ([1]; 120 µg/mL) was “−” and the “mutagenicity in SMART” value ([1]; 20–120 μg/mL, ST and HB cross) was “non-mutagenic”.
